Patent US12643881B2, “Bicyclic amine CDK12 inhibitors” (Incyte Corporation, priority 2021, dated 2026)

target: T1, CDK12 complexed with Cyclin K (Homo sapiens, UniProt Q9NYV4); assay: Alternative CDK Enzymatic Assays (HTRF, pre-incubation with compounds and 1 mM ATP), Example A2; type: biochemical; conditions: enzyme pre-incubated with compounds and 1 mM ATP for 60 minutes; reaction 120 minutes at 25° C.
T1 construct: GST (N)
Outline: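 GST-tagged human CDK12 co-expressed with full-length Cyclin K (baculovirus), pre-incubated 60 min with compounds and 1 mM ATP; reaction started with 1 mM ATP and 50 nM ULight-4E-BP1 peptide, 120 min at 25 °C, pH 7.5 HEPES. EDTA-stopped, Eu-anti-phospho-4E-BP1 HTRF (665/620 nm); IC50 from 3- or 4-parameter fit vs DMSO/no-enzyme controls.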

T1 sequence (Q9NYV4 whole entry): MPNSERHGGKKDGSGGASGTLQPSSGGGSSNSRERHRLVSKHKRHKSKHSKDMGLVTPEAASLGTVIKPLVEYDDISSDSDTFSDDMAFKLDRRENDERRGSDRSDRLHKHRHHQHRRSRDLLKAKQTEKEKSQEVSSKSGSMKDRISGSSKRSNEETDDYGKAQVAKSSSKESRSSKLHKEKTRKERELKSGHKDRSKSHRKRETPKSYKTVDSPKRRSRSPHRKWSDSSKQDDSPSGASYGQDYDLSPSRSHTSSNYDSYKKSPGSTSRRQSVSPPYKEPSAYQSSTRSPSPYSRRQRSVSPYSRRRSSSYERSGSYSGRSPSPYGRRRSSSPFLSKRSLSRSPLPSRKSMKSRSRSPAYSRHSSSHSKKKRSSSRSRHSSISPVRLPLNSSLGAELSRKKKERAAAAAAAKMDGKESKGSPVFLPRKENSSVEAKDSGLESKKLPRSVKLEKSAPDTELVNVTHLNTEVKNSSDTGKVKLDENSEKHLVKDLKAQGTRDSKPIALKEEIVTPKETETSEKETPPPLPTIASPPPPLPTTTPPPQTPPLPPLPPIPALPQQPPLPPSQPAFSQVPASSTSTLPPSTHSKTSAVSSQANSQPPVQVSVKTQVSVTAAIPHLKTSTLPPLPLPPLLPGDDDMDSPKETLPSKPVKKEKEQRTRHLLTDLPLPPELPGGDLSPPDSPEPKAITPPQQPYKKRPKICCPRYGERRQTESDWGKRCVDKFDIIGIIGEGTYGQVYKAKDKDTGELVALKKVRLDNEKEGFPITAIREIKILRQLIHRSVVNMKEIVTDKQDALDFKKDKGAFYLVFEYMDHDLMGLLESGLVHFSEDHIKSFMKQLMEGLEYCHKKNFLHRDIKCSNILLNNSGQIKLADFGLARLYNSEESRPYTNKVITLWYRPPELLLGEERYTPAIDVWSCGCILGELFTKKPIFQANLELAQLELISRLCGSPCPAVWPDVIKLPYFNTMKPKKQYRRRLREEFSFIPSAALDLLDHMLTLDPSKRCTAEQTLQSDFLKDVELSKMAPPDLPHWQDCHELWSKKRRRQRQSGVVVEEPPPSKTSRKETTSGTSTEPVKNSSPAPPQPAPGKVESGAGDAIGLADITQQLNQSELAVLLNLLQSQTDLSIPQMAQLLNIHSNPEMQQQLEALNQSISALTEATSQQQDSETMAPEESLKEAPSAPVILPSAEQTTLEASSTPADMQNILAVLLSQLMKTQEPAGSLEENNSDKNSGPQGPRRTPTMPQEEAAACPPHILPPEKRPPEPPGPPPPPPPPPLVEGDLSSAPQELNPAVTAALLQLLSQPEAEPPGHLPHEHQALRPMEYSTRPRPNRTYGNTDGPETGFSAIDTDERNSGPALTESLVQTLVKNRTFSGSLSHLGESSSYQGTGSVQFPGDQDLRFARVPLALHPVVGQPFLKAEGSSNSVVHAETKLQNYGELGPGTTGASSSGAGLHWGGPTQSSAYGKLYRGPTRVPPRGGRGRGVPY
T1 sequence (O75909 whole entry partner): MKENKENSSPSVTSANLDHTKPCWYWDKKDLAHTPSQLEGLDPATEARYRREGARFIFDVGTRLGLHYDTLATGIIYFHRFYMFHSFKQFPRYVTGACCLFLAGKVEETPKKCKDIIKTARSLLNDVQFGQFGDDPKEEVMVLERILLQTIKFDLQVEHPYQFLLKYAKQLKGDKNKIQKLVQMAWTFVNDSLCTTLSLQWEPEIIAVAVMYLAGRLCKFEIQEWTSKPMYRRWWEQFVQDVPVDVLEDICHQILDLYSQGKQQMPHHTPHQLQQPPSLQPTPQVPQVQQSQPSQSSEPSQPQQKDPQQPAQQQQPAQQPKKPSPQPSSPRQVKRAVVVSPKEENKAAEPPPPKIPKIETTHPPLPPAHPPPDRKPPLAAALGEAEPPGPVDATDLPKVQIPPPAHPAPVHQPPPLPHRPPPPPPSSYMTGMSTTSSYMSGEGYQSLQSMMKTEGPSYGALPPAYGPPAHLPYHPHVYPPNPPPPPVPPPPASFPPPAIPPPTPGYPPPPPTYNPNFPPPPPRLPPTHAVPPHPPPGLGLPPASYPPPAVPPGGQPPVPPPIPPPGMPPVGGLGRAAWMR

Row | SMILES | IC50 [nM]
1 | Cc1cc2c(cc1NC(=O)/C=C\CN(C)C)nc(N1C[C@H](F)C[C@@H](Nc3ncc(C(F)(F)F)cn3)C1)n2C [Example 119, (Z)-4-(Dimethylamino)-N-(2-((3R,5R)-3-fluoro-5-((5-(trifluoromethyl)pyrimidin-2-yl)amino)piperidin-1-yl)-1,6-dimethyl-1H-benzo[d]imidazol-5-yl)but-2-enamide] | > 500
2 | C=CC(=O)N1CCN(c2ccc3c(c2)nc(N2CCC[C@@H](Nc4ncc(C(F)(F)F)cn4)C2)n3C)CC1 [Example 128, (R)-1-(4-(1-Methyl-2-(3-((5-(trifluoromethyl)pyrimidin-2-yl)amino)piperidin-1-yl)-1H-benzo[d]imidazol-5-yl)piperazin-1-yl)prop-2-en-1-one] | 50 to 500
3 | C=CC(=O)Nc1cc2nc(N3CC[C@@H](O)[C@@H](Nc4ncc(C(F)(F)F)cn4)C3)n(C)c2cc1C [Example 148, N-(2-((3S,4R)-4-Hydroxy-3-((5-(trifluoromethyl)pyrimidin-2-yl)amino)piperidin-1-yl)-1,6-dimethyl-1H-benzo[d]imidazol-5-yl)acrylamide] | > 500
4 | C=CC(=O)Nc1cc2nc(N3C[C@H](F)C[C@@H](Nc4ncc(C#N)c(NC)n4)C3)n(C)c2cc1C [Example 158, N-(2-((3R,5R)-3-((5-Cyano-4-(methylamino)pyrimidin-2-yl)amino)-5-fluoropiperidin-1-yl)-1,6-dimethyl-1H-benzo[d]imidazol-5-yl)acrylamide] | < 50
5 | Cc1cc2c(cc1NC(=O)/C=C/C(C)(C)O)nc(N1C[C@H](F)C[C@@H](Nc3ncc(C(F)(F)F)cn3)C1)n2C [Example 112, (E)-N-(2-((3R,5R)-3-Fluoro-5-((5-(trifluoromethyl)pyrimidin-2-yl)amino)piperidin-1-yl)-1,6-dimethyl-1H-benzo[d]imidazol-5-yl)-4-hydroxy-4-methylpent-2-enamide] | > 500
6 | C=CC(=O)Nc1cc2nc(N3C[C@H](O)C[C@@H](Nc4ncc(C#N)cn4)C3)n(C)c2cc1C [Example 147, N-(2-((3R,5R)-3-((5-Cyanopyrimidin-2-yl)amino)-5-hydroxypiperidin-1-yl)-1,6-dimethyl-1H-benzo[d]imidazol-5-yl)acrylamide] | 50 to 500
7 | C=CC(=O)Nc1ccc2c(c1)nc(N1CCC[C@@H](Nc3ncc(C#N)c(N4CC[C@@H](N(C)C)C4)n3)C1)n2C [Example 142, N-(2-((R)-3-((5-cyano-4-((R)-3-(dimethylamino)pyrrolidin-1-yl)pyrimidin-2-yl)amino)piperidin-1-yl)-1-methyl-1H-benzo[d]imidazol-5-yl)acrylamide] | < 50
8 | C=CC(=O)Nc1ccc2c(c1)nc(N1CCC[C@@H](Nc3ncc(C(F)(F)F)cn3)C1)n2C [Example 123, (R)—N-(1-Methyl-2-(3-((5-(trifluoromethyl)pyrimidin-2-yl)amino)piperidin-1-yl)-1H-benzo[d]imidazol-5-yl)acrylamide] | < 50
9 | C=CC(=O)Nc1cc2nc(N3CCC[C@@H](Nc4ncc(C(F)(F)F)cn4)C3)n(C)c2cc1C(C)C [Example 154, (R)—N-(6-Isopropyl-1-methyl-2-(3-((5-(trifluoromethyl)pyrimidin-2-yl)amino)piperidin-1-yl)-1H-benzo[d]imidazol-5-yl)acrylamide] | < 50
10 | C=CC(=O)Nc1ccc2c(nc(N3CCC[C@@H](Nc4ncc(C(F)(F)F)cn4)C3)n2C)c1C [Example 156, (R)—N-(1,4-Dimethyl-2-(3-((5-(trifluoromethyl)pyrimidin-2-yl)amino)piperidin-1-yl)-1H-benzo[d]imidazol-5-yl)acrylamide] | < 50
11 | C=CC(=O)Nc1cc2nc(N3CCC[C@@H](Nc4ncc(C(F)(F)F)cn4)C3)n(C)c2cc1C1CC1 [Example 150, (R)—N-(6-Cyclopropyl-1-methyl-2-(3-((5-(trifluoromethyl)pyrimidin-2-yl)amino)piperidin-1-yl)-1H-benzo[d]imidazol-5-yl)acrylamide] | < 50
12 | C=CC(=O)Nc1cc2nc(N3C[C@H](Nc4ncc(C(F)(F)F)cn4)C[C@@H](OC)C3)n(C)c2cc1C [Example 111, N-(2-((3R,5R)-3-Methoxy-5-((5-(trifluoromethyl)pyrimidin-2-yl)amino)piperidin-1-yl)-1,6-dimethyl-1H-benzo[d]imidazol-5-yl)acrylamide] | 50 to 500
13 | C=CC(=O)Nc1ccc2c(c1)nc(N1CCC[C@@H](Nc3ncc(C(F)(F)F)s3)C1)n2C [Example 130, (R)—N-(1-Methyl-2-(3-((5-(trifluoromethyl)thiazol-2-yl)amino)piperidin-1-yl)-1H-benzo[d]imidazol-5-yl)acrylamide] | < 50
14 | C=CC(=O)Nc1ccc2c(c1)nc(N1CCC[C@@H](Nc3cc(OC)c(C#N)cn3)C1)n2C [Example 151, (R)—N-(2-(3-((5-Cyano-4-methoxypyridin-2-yl)amino)piperidin-1-yl)-1-methyl-1H-benzo[d]imidazol-5-yl)acrylamide] | < 50
15 | Cc1cc2c(cc1NC(=O)/C=C/CN1CCCCC1)nc(N1C[C@H](F)C[C@@H](Nc3ncc(C(F)(F)F)cn3)C1)n2C [Example 118, (E)-N-(2-((3R,5R)-3-Fluoro-5-((5-(trifluoromethyl)pyrimidin-2-yl)amino)piperidin-1-yl)-1,6-dimethyl-1H-benzo[d]imidazol-5-yl)-4-(piperidin-1-yl)but-2-enamide] | > 500

Continued, values first:

Row | IC50 [nM] | SMILES
16 | 50 to 500 | C=CC(=O)N1[C@H](C)CN(c2nccn3c(N4C[C@H](F)C[C@@H](Nc5ncc(C(F)(F)F)cn5)C4)ncc23)C[C@@H]1C [Example 104, 1-((2S,6R)-4-(3-((3R,5R)-3-Fluoro-5-((5-(trifluoromethyl)pyrimidin-2-yl)amino)piperidin-1-yl)imidazo[1,5-a]pyrazin-8-yl)-2,6-dimethylpiperazin-1-yl)prop-2-en-1-one]
17 | 50 to 500 | CC#CC(=O)N1C[C@@H]2C[C@H]1CN2c1nccn2c(N3C[C@H](F)C[C@@H](Nc4ncc(C(F)(F)F)cn4)C3)ncc12 [Example 106, 1-((1S,4S)-5-(3-((3R,5R)-3-Fluoro-5-((5-(trifluoromethyl)pyrimidin-2-yl)amino)piperidin-1-yl)imidazo[1,5-a]pyrazin-8-yl)-2,5-diazabicyclo[2.2.1]heptan-2-yl)but-2-yn-1-one]
18 | < 50 | C=CC(=O)Nc1cc2nc(N3C[C@H](F)C[C@@H](Nc4ncc(C(F)(F)F)cn4)C3)n(C)c2cc1COC [Example 133, N-(2-((3R,5R)-3-Fluoro-5-((5-(trifluoromethyl)pyrimidin-2-yl)amino)piperidin-1-yl)-6-(methoxymethyl)-1-methyl-1H-benzo[d]imidazol-5-yl)acrylamide]
19 | < 50 | C=CC(=O)N1CCC12CN(c1nccn3c(N4C[C@H](F)C[C@@H](Nc5ncc(C(F)(F)F)cn5)C4)ncc13)C2 [Example 105, 1-(6-(3-((3R,5R)-3-Fluoro-5-((5-(trifluoromethyl)pyrimidin-2-yl)amino)piperidin-1-yl)imidazo[1,5-a]pyrazin-8-yl)-1,6-diazaspiro[3.3]heptan-1-yl)prop-2-en-1-one]
20 | 50 to 500 | C=CC(=O)N1CCCCC1c1nccn2c(N3CCC[C@@H](Nc4ncc(C(F)(F)F)cn4)C3)ncc12 (stereo partly drawn) [Example 108, 1-(2-(3-((R)-3-((5-(Trifluoromethyl)pyrimidin-2-yl)amino)piperidin-1-yl)imidazo[1,5-a]pyrazin-8-yl)piperidin-1-yl)prop-2-en-1-one]
21 | < 50 | [2H]C([2H])([2H])c1cc2c(cc1NC(=O)C=C)nc(N1C[C@H](F)C[C@@H](Nc3ncc(C(F)(F)F)cn3)C1)n2C [Example 135, N-(2-((3R,5R)-3-Fluoro-5-((5-(trifluoromethyl)pyrimidin-2-yl)amino)piperidin-1-yl)-1-methyl-6-(methyl-d3)-1H-benzo[d]imidazol-5-yl)acrylamide]
22 | 50 to 500 | CC#CC(=O)Nc1cc2nc(N3C[C@H](F)C[C@@H](Nc4ncc(C(F)(F)F)cn4)C3)n(C)c2cc1C [Example 116, N-(2-((3R,5R)-3-Fluoro-5-((5-(trifluoromethyl)pyrimidin-2-yl)amino)piperidin-1-yl)-1,6-dimethyl-1H-benzo[d]imidazol-5-yl)but-2-ynamide]
23 | < 50 | C=CC(=O)Nc1cc2nc(N3C[C@H](F)C[C@@H](Nc4ncc(C(F)(F)F)cn4)C3)n(C)c2cc1C#N [Example 140, N-(6-Cyano-2-((3R,5R)-3-fluoro-5-((5-(trifluoromethyl)pyrimidin-2-yl)amino)piperidin-1-yl)-1-methyl-1H-benzo[d]imidazol-5-yl)acrylamide]
24 | < 50 | Cc1cc2c(cc1NC(=O)C#CC(C)(C)O)nc(N1C[C@H](F)C[C@@H](Nc3ncc(C(F)(F)F)cn3)C1)n2C [Example 113, N-(2-((3R,5R)-3-Fluoro-5-((5-(trifluoromethyl)pyrimidin-2-yl)amino)piperidin-1-yl)-1,6-dimethyl-1H-benzo[d]imidazol-5-yl)-4-hydroxy-4-methylpent-2-ynamide]
25 | 50 to 500 | C=C(F)C(=O)Nc1cc2nc(N3C[C@H](F)C[C@@H](Nc4ncc(C(F)(F)F)cn4)C3)n(C)c2cc1C [Example 117, 2-Fluoro-N-(2-((3R,5R)-3-fluoro-5-((5-(trifluoromethyl)pyrimidin-2-yl)amino)piperidin-1-yl)-1,6-dimethyl-1H-benzo[d]imidazol-5-yl)acrylamide]
26 | 50 to 500 | C=CC(=O)N1C[C@@H]2C[C@H]1CN2c1nccn2c(N3C[C@H](F)C[C@@H](Nc4ncc(C(F)(F)F)cn4)C3)ncc12 [Example 107, 1-((1S,4S)-5-(3-((3R,5R)-3-Fluoro-5-((5-(trifluoromethyl)pyrimidin-2-yl)amino)piperidin-1-yl)imidazo[1,5-a]pyrazin-8-yl)-2,5-diazabicyclo[2.2.1]heptan-2-yl)prop-2-en-1-one]
